This is an account of results in ChEMBL document CHEMBL2029323, “The discovery and development of selective 3-fluoro-4-aryloxyallylamine inhibitors of the amine oxidase activity of semicarbazide-sensitive amine oxidase/vascular adhesion protein-1 (SSAO/VAP-1)” (Bioorg Med Chem Lett, 2012).

A value given as a limit tells only on which side of the number the result lay.

The target of one assay is T1, Amine oxidase [copper-containing] 3 (Homo sapiens, UniProt Q16853).
T1 sequence (Q16853 whole entry): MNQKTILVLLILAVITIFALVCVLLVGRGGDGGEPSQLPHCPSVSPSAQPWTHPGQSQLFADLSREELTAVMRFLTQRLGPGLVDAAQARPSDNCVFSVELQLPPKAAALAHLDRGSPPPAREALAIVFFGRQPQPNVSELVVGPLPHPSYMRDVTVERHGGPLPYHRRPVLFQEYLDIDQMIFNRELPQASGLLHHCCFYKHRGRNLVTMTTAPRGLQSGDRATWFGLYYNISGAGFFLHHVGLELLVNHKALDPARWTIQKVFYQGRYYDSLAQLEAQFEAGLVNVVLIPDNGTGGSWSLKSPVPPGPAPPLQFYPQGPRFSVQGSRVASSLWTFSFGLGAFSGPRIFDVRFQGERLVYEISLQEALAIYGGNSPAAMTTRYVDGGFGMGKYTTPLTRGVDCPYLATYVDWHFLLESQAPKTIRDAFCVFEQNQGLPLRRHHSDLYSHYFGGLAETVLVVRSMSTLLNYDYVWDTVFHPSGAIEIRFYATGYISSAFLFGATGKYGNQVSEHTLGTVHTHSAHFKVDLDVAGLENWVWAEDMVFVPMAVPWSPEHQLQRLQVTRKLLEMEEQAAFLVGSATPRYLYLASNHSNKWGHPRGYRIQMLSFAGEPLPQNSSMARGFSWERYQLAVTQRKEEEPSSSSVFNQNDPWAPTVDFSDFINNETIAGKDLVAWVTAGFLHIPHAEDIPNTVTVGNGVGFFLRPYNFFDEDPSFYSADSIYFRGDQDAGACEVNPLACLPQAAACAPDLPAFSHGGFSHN
The assay is described as follows: Inhibition of human recombinant SSAO/VAP1 assessed as H2O2 production by Resorufin/Amplex Red assay.
For the compound `CC(C)(C)c1ccc(OC/C(F)=C\CN)cc1`, the IC50 (usually the midpoint of a concentration-inhibition curve) stood at 0.21 µM.

For the compound `NC/C=C(/F)COc1ccc(OC(F)(F)F)cc1`, the IC50 was determined as 0.18 µM.

Turning to `NC/C=C(/F)COc1ccc([N+](=O)[O-])cc1`, the half-maximal inhibitory concentration (IC50) is 0.07 µM.

`NC/C=C(/F)COc1ccc(F)c(F)c1`: the IC50 turned out to be 0.19 µM.

For `NC/C=C(/F)COc1ccc(C(F)(F)F)cc1`, the IC50 was 0.04 µM.

In the case of `NC/C=C(/F)COc1cccc(C(F)(F)F)c1`, the IC50 was 0.15 µM.

Take `NC/C=C(/F)COc1ccc(C(N)=O)cc1`: the IC50 is 1.07 µM.

Consider `CN(C)C(=O)c1ccc(OC/C(F)=C\CN)cc1`, for which the IC50 turned out to be 0.37 µM.

In the case of `NC/C=C(/F)COc1ccc(C(=O)N2CCCC2)cc1`, the IC50 came out at 0.14 µM.

As to `CN(Cc1ccccc1)C(=O)c1ccc(OC/C(F)=C\CN)cc1`, the IC50 was 0.26 µM.

For `NC/C=C(/F)COc1ccc(C(=O)NCc2ccccc2)cc1`, the IC50 is 0.08 µM.

With `C[C@@H](NC(=O)c1ccc(OC/C(F)=C\CN)cc1)c1ccccc1`, the IC50 turned out to be 0.03 µM.

On to `CC(NC(=O)c1ccc(OC/C(F)=C\CN)cc1)c1ccccc1` (racemic), for which the IC50 came out at 0.04 µM.

The target of the next assay is T2, Amine oxidase [flavin-containing] A (Homo sapiens, UniProt P21397).
T2 sequence (P21397 whole entry): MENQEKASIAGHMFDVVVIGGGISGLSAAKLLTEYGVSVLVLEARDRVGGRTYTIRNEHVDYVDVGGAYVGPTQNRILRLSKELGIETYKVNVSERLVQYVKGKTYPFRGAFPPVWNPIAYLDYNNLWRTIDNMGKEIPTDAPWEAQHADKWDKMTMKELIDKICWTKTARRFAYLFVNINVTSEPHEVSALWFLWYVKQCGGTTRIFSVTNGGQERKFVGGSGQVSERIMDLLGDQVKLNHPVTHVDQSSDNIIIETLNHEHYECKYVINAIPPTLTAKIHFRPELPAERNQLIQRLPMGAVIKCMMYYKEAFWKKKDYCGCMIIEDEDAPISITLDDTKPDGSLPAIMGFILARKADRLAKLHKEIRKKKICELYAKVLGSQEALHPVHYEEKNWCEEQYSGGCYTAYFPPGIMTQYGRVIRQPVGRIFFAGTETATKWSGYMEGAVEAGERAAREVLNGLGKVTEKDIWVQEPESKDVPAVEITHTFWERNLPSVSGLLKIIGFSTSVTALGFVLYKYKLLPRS
The experiment in a line: Inhibition of human recombinant MAO-A assessed as H2O2 production by Resorufin/Amplex Red assay.
As to `CC(C)(C)c1ccc(OC/C(F)=C\CN)cc1`, the IC50 was more than 30 µM.

On to `NC/C=C(/F)COc1cccc(C(F)(F)F)c1`, for which the IC50 is more than 10 µM.

`NC/C=C(/F)COc1ccc(C(N)=O)cc1`: the IC50 is more than 30 µM.

Consider `C[C@@H](NC(=O)c1ccc(OC/C(F)=C\CN)cc1)c1ccccc1`, for which the IC50 was more than 30 µM.

A further assay has as its target recombinant human DAO (diamine oxidase) (Homo sapiens, UniProt P19801). The experiment in a line: Inhibition of human DAO measuring H2O2 production by Resorufin/Amplex Red assay.
Turning to `C[C@@H](NC(=O)c1ccc(OC/C(F)=C\CN)cc1)c1ccccc1`, the IC50 was 2.46 µM.

The target of a further assay is T3, Amine oxidase [flavin-containing] B (Homo sapiens, UniProt P27338).
T3 sequence (P27338 whole entry): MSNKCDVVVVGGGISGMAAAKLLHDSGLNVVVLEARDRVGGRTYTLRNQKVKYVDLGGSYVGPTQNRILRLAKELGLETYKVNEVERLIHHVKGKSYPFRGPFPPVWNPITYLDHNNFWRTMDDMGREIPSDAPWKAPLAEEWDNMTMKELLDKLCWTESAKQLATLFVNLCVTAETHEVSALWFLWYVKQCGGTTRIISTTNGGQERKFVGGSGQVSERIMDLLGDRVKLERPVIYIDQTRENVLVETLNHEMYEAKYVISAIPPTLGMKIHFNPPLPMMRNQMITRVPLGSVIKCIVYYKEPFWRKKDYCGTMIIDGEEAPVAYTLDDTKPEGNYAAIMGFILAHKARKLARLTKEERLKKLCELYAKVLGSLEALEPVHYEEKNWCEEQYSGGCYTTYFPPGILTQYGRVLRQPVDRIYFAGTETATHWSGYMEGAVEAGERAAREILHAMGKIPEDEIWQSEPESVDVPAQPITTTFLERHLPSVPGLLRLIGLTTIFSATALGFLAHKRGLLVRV
The assay is described as follows: Inhibition of human recombinant MAO-B assessed as H2O2 production by Resorufin/Amplex Red assay.
Turning to `CC(C)(C)c1ccc(OC/C(F)=C\CN)cc1`, the IC50 turned out to be 6.4 µM.

Consider `NC/C=C(/F)COc1ccc(OC(F)(F)F)cc1`, for which the IC50 was 0.07 µM.

Turning to `NC/C=C(/F)COc1ccc([N+](=O)[O-])cc1`, the IC50 was determined as 0.01 µM.

As for `NC/C=C(/F)COc1ccc(F)c(F)c1`, the IC50 amounted to 0.09 µM.

In the case of `NC/C=C(/F)COc1ccc(C(F)(F)F)cc1`, the IC50 was found to be 0.13 µM.

Consider `NC/C=C(/F)COc1cccc(C(F)(F)F)c1`, for which the IC50 was 0.03 µM.

As for `NC/C=C(/F)COc1ccc(C(N)=O)cc1`, the 50% inhibitory concentration (IC50) was more than 30 µM.

For the compound `CN(C)C(=O)c1ccc(OC/C(F)=C\CN)cc1`, the IC50 is 19 µM.

In the case of `NC/C=C(/F)COc1ccc(C(=O)N2CCCC2)cc1`, the IC50 was found to be 11 µM.

Take `CN(Cc1ccccc1)C(=O)c1ccc(OC/C(F)=C\CN)cc1`: the IC50 came out at 2.21 µM.

Take `NC/C=C(/F)COc1ccc(C(=O)NCc2ccccc2)cc1`: the IC50 is 0.62 µM.

`C[C@@H](NC(=O)c1ccc(OC/C(F)=C\CN)cc1)c1ccccc1`: the IC50 was 1.61 µM.

Consider `CC(NC(=O)c1ccc(OC/C(F)=C\CN)cc1)c1ccccc1` (racemic), for which the IC50 worked out at 2.98 µM.
